Assays:
pcb-00197 = system: pcb-00197 (human undifferentiated pleomorphic sarcoma culture)
Method: (§1)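 60-agent targeted drug screens (Drug Screen V3 on epithelioid sarcoma cultures PCB490-3/4/5, PCB495, EPS cell lines ESX, VA-ES-BJ, FU-EPS-1 and SkMc myoblasts; PPTI screen v2.1 on human UPS PCB197 and canine UPS S1-12). 384-well plates, 72 h, CellTiter-Glo viability; IC50 by Hill curve fit. 10000 nM = no IC50 achieved (top reported value).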

s1-12 = system: s1-12 (canine undifferentiated pleomorphic sarcoma culture)
Method: as §1

PCB490-5 = system: PCB490-5 (human epithelioid sarcoma primary culture)
Method: (§2)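 Roche open-access kinase inhibitor screen (223 compounds) on human epithelioid sarcoma primary cultures from three spatially distinct regions of tumor PCB490. 384-well plates, 72 h, CellTiter-Glo viability; IC50 by Hill curve fit. 100000 nM = no IC50 reached. Compound ids carry a plate-well prefix, which is stripped.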

PCB490-3 = system: PCB490-3 (human epithelioid sarcoma primary culture)
Method: as §2

PCB490-4 = system: PCB490-4 (human epithelioid sarcoma primary culture)
Method: as §2

Compound	IC50 cell viability (pcb-00197)	IC50 cell viability (s1-12)	IC50 cell viability (PCB490-5)	IC50 cell viability (PCB490-3)	IC50 cell viability (PCB490-4)
Cc1ccc(Nc2nccc(N(C)c3ccc4c(C)n(C)nc4c3)n2)cc1S(N)(=O)=O [pazopanib]	> 10 µM	> 10 µM			
CC(/C=C/C(=O)NO)=C\[C@@H](C)C(=O)c1ccc(N(C)C)cc1 [trichostatin]	> 10 µM	0.87 µM			
Nc1ncn([C@H]2C[C@H](O)[C@@H](CO)O2)c(=O)n1 [decitabine]	> 10 µM	0.33 µM			
Cn1cnc2c(F)c(Nc3ccc(Br)cc3Cl)c(C(=O)NOCCO)cc21 [selumetinib]	> 10 µM	1.55 µM			
O=C1C(c2c[nH]c3ccccc23)=C(c2c[nH]c3ccccc23)C(=O)N1O			> 100 µM	> 100 µM	> 100 µM
Cn1cc(C2=C(c3cccc([N+](=O)[O-])c3)C(=O)NC2=O)c2ccccc21			> 100 µM	> 100 µM	> 100 µM
O=C1NC(=NCCc2ccc(Cl)cc2)S/C1=C\c1ccc2ncccc2c1			> 100 µM	> 100 µM	> 100 µM
Cn1cc(C2=C(c3cccnc3)C(=O)NC2=O)c2ccccc21			> 100 µM	> 100 µM	> 100 µM
Nc1c(C(=O)c2cccc(CCC3(O)CCCC3)c2)cnn1-c1ccc(F)cc1			> 100 µM	> 100 µM	> 100 µM
CSc1c(C2=C(c3cn(C)c4ccccc34)C(=O)NC2=O)c2ccccc2n1C			> 100 µM	> 100 µM	> 100 µM
Cc1cc(C)c2c(n1)sc1c(N)ncnc12			> 100 µM	> 100 µM	> 100 µM
CNCC1CCn2c(c(C3=C(c4cn(C)c5ccccc45)C(=O)NC3=O)c3ccccc32)C1 (stereo not given)			> 100 µM	0.89 µM	> 100 µM
O=C1NC(=Nc2ccccc2)S/C1=C\c1ccc2ncccc2c1			> 100 µM	> 100 µM	> 100 µM
Cn1c(=O)c(Oc2ccc(F)cc2F)cc2cnc(NC3CCOCC3)nc21			> 100 µM	> 100 µM	> 100 µM
Cn1cc(C2=C(c3c[nH]c4ccccc34)C(=O)NC2=O)c2ccccc21			> 100 µM	> 100 µM	> 100 µM
Cn1cc(C2=C(c3c4n(c5ccccc35)CCC(CN)CC4)C(=O)NC2=O)c2ccccc21 (stereo not given)			> 100 µM	> 100 µM	> 100 µM
COc1ccc(C2=C(c3cn(C)c4ccccc34)C(=O)NC2=O)cc1OC			> 100 µM	> 100 µM	> 100 µM
Cc1nc2sc3c(N)ncnc3c2c(C)c1C			> 100 µM	> 100 µM	> 100 µM
Cn1cc(C2=C(c3cn(CCCN=C(N)N)c4ccccc34)C(=O)NC2=O)c2ccccc21			> 100 µM	> 100 µM	> 100 µM
O=C1NC(=NCCc2cccs2)S/C1=C\c1ccc2ncccc2c1			> 100 µM	> 100 µM	> 100 µM
Cn1cc(C2=C(c3c4n(c5ccccc35)CCCCC4)C(=O)NC2=O)c2ccccc21			> 100 µM	> 100 µM	> 100 µM
COc1ccccc1CCN=C1NC(=O)/C(=C/c2ccc3ncccc3c2)S1			> 100 µM	> 100 µM	> 100 µM
CC(=O)Nc1ccc2c(C3=C(c4cn(C)c5ccccc45)C(=O)NC3=O)cn(C)c2c1			> 100 µM	> 100 µM	1.94 µM

From the supplement of paper PMC6580486
